Results as given in PubChem BioAssay AID179 (DTP/NCI, 2004).
Calls of active or inactive are those of the source.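 The calls were made as follows: active = compounds giving half or more protection of infected cells from virus-caused growth loss, again on retest; inactive = the rest.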

Test system: CEM cells HIV-1 protection, formazan growth assay
Assay: NCI AIDS Antiviral Assay
Conditions: for IC50: measured here: growth of uninfected CEM cells
How it was run: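 CEM (human) cells, HIV-1 infected vs uninfected, 5-point dosing, formazan growth read-out. Retest threshold 50% protection.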

| Compound | EC50 | IC50 | outcome |
| --- | --- | --- | --- |
| NC1(S(=O)(=O)O)c2ccccc2-c2ccccc21 | > 200 µM | 151 µM |  |
| CC(C)OP(=O)(CCC(=O)C1(O)CCC2C3CCC4=CC(=O)CCC4(C)C3CCC21C)OC(C)C (stereo not drawn) | > 200 µM | 32.4 µM |  |
| N=C1c2ccccc2C(=O)c2c(NCCNCCO)ccc(O)c21 | > 7.76 µM | 0.759 µM |  |
| O=C(c1ccc(Cl)cc1)N1CC1 | > 200 µM | 81.3 µM |  |
| COn1oc(=O)c2ccccc21 | > 200 µM | > 200 µM |  |
| Cc1ccc(S(=O)(=O)/C(C#N)=C/n2ccc(=O)[nH]c2=S)cc1 | > 200 µM | > 200 µM |  |
| C[C@@H]1C(=O)c2c(O)cc(O)cc2O[C@@H]1C | > 200 µM | > 200 µM |  |
| Cc1cccc2c(=O)c3cccc([C@H](C)C(=O)O)c3oc12 | > 200 µM | > 200 µM |  |
| CN(C)CC1CCC/C1=N\O (stereo not drawn) | > 1580 µM | 1380 µM |  |
| Cc1cc(N(CCC#N)CCC#N)ccc1/C(N=Nc1ccc([N+](=O)[O-])cc1)=N\NC(=O)c1cc(Cl)ccc1O | > 200 µM | 22.9 µM |  |
| C=C1CC(c2ccc(OCCCN3C(=O)c4ccccc4C3=O)cc2)OC1=O (stereo not drawn) | > 20 µM | 1.7 µM |  |
| O=C(ON=c1c2ccccc2ccc2ccccc12)c1ccccc1 | > 200 µM | 33.9 µM |  |
| O=[N+]([O-])c1ccc(-n2nnc(C3=NCCN3)c2-c2ccc(Cl)cc2)cc1 | > 135 µM | > 135 µM |  |
| Cc1ccc(C2(O)c3ccccc3N=NN2C)cc1 (stereo not drawn) | > 269 µM | 105 µM |  |
| COC(=O)C(=O)C1CSC2=C(CS(=O)(=O)c3ccccc32)C1=O (stereo not drawn) | > 200 µM | > 200 µM |  |
| N/C(=N\N=C\c1c[nH]c2cc(C(F)(F)F)ccc2c1=O)NO | > 200 µM | 89.1 µM |  |
| C/C=C/C[P+](Cc1ccccc1)(c1ccccc1)c1ccccc1 | > 603 µM | 4.17 µM |  |
| Cc1nn(C(=O)Cc2ccccc2)c2c1C(c1ccccc1[N+](=O)[O-])SC(N)=N2 (stereo not drawn) | > 501 µM | 87.1 µM |  |
| CCC1C(c2ccccc2O)c2cc3c(cc2OC1N1CCOCC1)OCO3 (stereo not drawn) | > 200 µM | 22.4 µM |  |
| COC(=O)C1=CC2C(=O)OC1C1C(=O)NC(=O)C21 (stereo not drawn) |  |  | inactive |
| Cc1cn(CC(CO)CCO)c(=O)[nH]c1=O (stereo not drawn) | > 1100 µM | > 1100 µM |  |

| Compound | EC50 | IC50 | outcome |
| --- | --- | --- | --- |
| Cc1cccc(C)c1NC(=O)/C(Cl)=C(/Cl)C(=O)O |  |  | inactive |
| COc1cnc([C@H]2CCC3[C@@H]4CC=C5C[C@@H](O)CC[C@]5(C)C4CC[C@@]32C)s1 (stereo partly drawn) | > 4.9 µM | > 4.9 µM |  |
| COC1=C(N)C(=O)c2nc(C)ccc2C1=O |  |  | inactive |
| CC(=O)c1c2c(cc3c1CC1(Cc4cc5c(cc4C1)C(=O)CCC5)C3)CCCC2 (stereo not drawn) | > 200 µM | 3.63 µM |  |
| O=S(=O)(O)c1ccc(O)c(N=Nc2ccc(/C=C/c3ccc(N=Nc4cc(S(=O)(=O)O)ccc4O)cc3S(=O)(=O)O)c(S(=O)(=O)O)c2)c1 | > 200 µM | 126 µM |  |
| CC#CCOC(=O)c1ccccc1OC(C)=O.[C-]#[O+].[C-]#[O+].[C-]#[O+].[C-]#[O+].[C-]#[O+].[C-]#[O+].[Co].[Co] | > 200 µM | 7.76 µM |  |
| CC1(c2ccc(F)cc2)C(C#N)C(=O)NC(=O)C1C#N (stereo not drawn) | > 912 µM | 170 µM |  |
| CC(C)OC(=O)c1ccc(CCC2=CC(=O)C=CC2=O)cc1 | > 200 µM | 8.32 µM |  |
| NNC1=Nc2ccc(Cl)cc2C(=S)N2CSCC12 (stereo not drawn) | > 200 µM | > 200 µM |  |
| O=C(CC(C(=O)c1cccs1)c1cccs1)c1ccccc1Cl (stereo not drawn) | > 200 µM | 18.6 µM |  |
| CC(=O)Nc1c(C(=N)C#N)ncn1CCO | > 200 µM | > 200 µM |  |
| CO[C@H](/C(C)=C/C=C/C(C)=C/c1coc(C)n1)[C@H](C)[C@H]1C[C@@H](O)[C@@]2(C)O[C@H]2/C=C/[C@@H](C)[C@@H]2C[C@@H](CC(=O)O2)C[C@H]2O[C@@H]2C(=O)O1 | > 0.219 µM | 0.00017 µM |  |
| COc1ccc2c(c1OC)C(=O)c1ccoc1C2=O |  |  | inactive |
| N#Cc1c(N)c(C(=O)O)nn(-c2cccc(C(F)(F)F)c2)c1=O |  |  | inactive |
| CC(=O)NC(CCCCNC(=O)OCc1ccccc1)C(=O)NCc1ccccc1 (stereo not drawn) | > 87.1 µM | > 87.1 µM |  |
| COc1cc2c(cc1O)CC1c3c(cc(O)c(OC)c3-2)CCN1C (stereo not drawn) | > 200 µM | 69.2 µM |  |
| O=C(O)CCCc1cc2c(s1)-c1cccc3cccc-2c13 | > 33.9 µM | > 33.9 µM |  |
| COC1=NC2=CC(=O)c3c(c(O)c(C)c4c3C(=O)C(C)(O/C=C/C(OC)C(C)C(OC(C)=O)C(C)C(O)C(C)C(O)C(C)/C=C/C=C\1C)O4)C2=O (stereo not drawn) | > 200 µM | 33.1 µM |  |
| CCOCN1C(=O)C2CC(/C=C/C(=O)OC)=CN2C(=O)c2ccccc21 (stereo not drawn) |  |  | inactive |
| O=c1[nH]c(=O)n(C2OC(CO)C(O)C2O)cc1F (stereo not drawn) | > 20 µM | 0.00631 µM |  |
| C=CCC12CC(OC)C(O)CC1(O)OC(c1cc(OC)c(OC)c(OC)c1)C2C (stereo not drawn) | > 200 µM | > 200 µM |  |

| Compound | EC50 | IC50 | outcome |
| --- | --- | --- | --- |
| COc1ccc(CCNC(=S)N/C=C(\C#N)S(=O)(=O)c2ccc(C)cc2)cc1OC | > 200 µM | > 200 µM |  |
| O=C(Cc1ccccc1)N=Nc1c(O)[nH]c2ccccc12 | > 200 µM | > 200 µM |  |
| CN(C)c1ccc(/C=C(\C#N)c2c(Br)cccc2Br)cc1 | > 200 µM | 4.17 µM |  |
| CN(C)NC(=O)NC12CC3CC(CC(C3)C1)C2 |  |  | inactive |
| CCO[C@H]1N(C2CC(N=[N+]=[N-])C(CO)O2)C(=O)NC(=O)[C@]1(C)Cl (stereo partly drawn) | > 200 µM | > 200 µM |  |
| C(=C/[PH+](c1ccccc1)c1ccccc1)/[PH+](c1ccccc1)c1ccccc1.O=C([O-])C(F)(F)F.[C-]#[O+].[C-]#[O+].[C-]#[O+].[Mn] | > 8.13 µM | 0.589 µM |  |
| Cc1cnc([C@H]2CCC3[C@@H]4CC=C5C[C@@H](OC(=O)CCC(=O)O)CC[C@]5(C)C4CC[C@@]32C)s1 (stereo partly drawn) | > 52.5 µM | 50.1 µM |  |
| C=C(Br)CN(C#N)CC(=C)Br | > 200 µM | > 200 µM |  |
| CCOC(=O)c1cc(C2CCN(Cc3ccccc3)C2=O)c(C(=O)C(=[N+]=[N-])C(C)=O)[nH]1 (stereo not drawn) | > 200 µM | > 200 µM |  |
| O=[N+]([O-])c1ccccc1S(=O)c1ccccc1 (stereo not drawn) | 6.76 µM | 22.4 µM |  |
| c1ccc(SSc2ccccc2)cc1 | > 200 µM | 5.62 µM |  |
| O=S(O)CCCCSSCC(O)C(O)CSSCCCCS(=O)O (stereo not drawn) |  |  | inactive |
| O=S1c2ccccc2NC(c2ccc3ccccc3c2)CC1c1ccccc1 (stereo not drawn) | > 7.08 µM | > 7.08 µM |  |
| CC(SC(=N)N)C(=N)N (stereo not drawn) | > 200 µM | > 200 µM |  |
| O=S(O)CCCSSSCCCS(=O)O |  |  | inactive |
| O=c1oc2ccccc2nc1/C=C(\O)c1ccc(Cl)cc1 | > 200 µM | 64.6 µM |  |
| O=S(=O)(NCCSSCCNS(=O)(=O)c1ccc(Cl)cc1)c1ccc(Cl)cc1 | > 200 µM | 17.8 µM |  |
| S=c1nc(COc2ccc(Cl)cc2)[nH][nH]1 | > 1020 µM | > 1020 µM |  |
| CCOC(=O)/C=C1\Nc2ccccc2C(c2ccccc2)=NC1OC(C)=O (stereo not drawn) | > 20 µM | > 20 µM |  |
